Each structure is given as a SMILES string.

The experiment addresses T1, Aminopeptidase N (Sus scrofa, UniProt P15145).
T1 sequence (P15145 whole entry): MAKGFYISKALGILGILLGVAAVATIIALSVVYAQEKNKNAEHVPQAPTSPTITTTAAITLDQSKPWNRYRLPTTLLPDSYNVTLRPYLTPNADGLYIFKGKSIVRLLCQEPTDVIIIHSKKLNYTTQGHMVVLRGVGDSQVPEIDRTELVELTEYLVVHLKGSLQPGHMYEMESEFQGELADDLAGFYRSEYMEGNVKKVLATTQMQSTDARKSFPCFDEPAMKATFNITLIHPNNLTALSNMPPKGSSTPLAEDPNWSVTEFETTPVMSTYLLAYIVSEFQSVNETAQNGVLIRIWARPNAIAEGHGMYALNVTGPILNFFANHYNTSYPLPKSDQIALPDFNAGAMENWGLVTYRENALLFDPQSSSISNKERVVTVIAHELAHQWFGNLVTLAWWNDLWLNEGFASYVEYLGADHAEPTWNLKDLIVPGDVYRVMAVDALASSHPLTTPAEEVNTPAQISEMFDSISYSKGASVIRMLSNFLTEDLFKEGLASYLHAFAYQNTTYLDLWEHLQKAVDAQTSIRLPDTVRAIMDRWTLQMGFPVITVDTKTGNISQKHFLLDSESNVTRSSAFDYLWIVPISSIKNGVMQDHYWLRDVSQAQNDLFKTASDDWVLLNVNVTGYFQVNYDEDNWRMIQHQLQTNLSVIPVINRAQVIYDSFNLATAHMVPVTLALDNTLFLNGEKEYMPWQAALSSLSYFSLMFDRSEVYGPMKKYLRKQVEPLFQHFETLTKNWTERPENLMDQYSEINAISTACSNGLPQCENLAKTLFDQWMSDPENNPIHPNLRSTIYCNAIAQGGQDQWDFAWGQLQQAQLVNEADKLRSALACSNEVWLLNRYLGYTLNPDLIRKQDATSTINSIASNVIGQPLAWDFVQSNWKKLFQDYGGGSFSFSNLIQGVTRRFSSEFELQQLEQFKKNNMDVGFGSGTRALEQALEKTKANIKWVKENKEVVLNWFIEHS
Put plainly: Inhibition of pig kidney Aminopeptidase N.
As a reminder, the Ki is the dissociation constant of the complex between target and ligand, obtained from inhibition or displacement. `N[C@H](CS)c1ccccc1` displayed an inhibition constant (Ki) of 25 nM.
Consider `NC(Cc1ccccc1)P(=O)(O)CC(Cc1ccccc1)C(=O)O` (stereo unspecified), for which affinity was put at a Ki of 190 nM. This Ki is about 7.6-fold higher than that of the molecule before.
For `N[C@H](CS)CCc1ccccc1` the value was 27 nM.
On to `CC(C)CC(N)P(=O)(O)CC(Cc1ccccc1)C(=O)O` (stereo unspecified), for which affinity was put at a Ki of 370 nM. This Ki is about 14-fold higher than that of the molecule before.
For `C[C@H](N)CS` the value was 28 nM; for `CC(N)[PH](=O)O` (stereo unspecified), 8400 nM.
`NC(Cc1ccccc1)[PH](=O)O` (stereo unspecified) came in with an inhibitory constant (Ki) of 960 nM.
The figure for `CSCCC(N)[PH](=O)O` (stereo unspecified) is 400 nM; for `CC(C)CC(N)[PH](=O)O` (stereo unspecified) it is 1200 nM; for `NC(c1ccccc1)[PH](=O)O` (stereo unspecified) it is 4800 nM.
The figure for `CC(C)C[C@H](N)CS` is 22 nM.

For the origin of these results see ChEMBL document CHEMBL1131728 (Bioorg Med Chem Lett, 1999).
